Patent publication US9445987B2, “Ceramide production enhancer and moisturizer” (Kao Corporation, priority 2009, dated 2016)

Tested on: Normal human epidermal keratinocytes (NHEK(F))
Test: Verification of ceramide production enhancing effect (Test Example 2 and Reference Example)
Assay type: cell-based
Method: Normal human epidermal keratinocytes (trade name: NHEK(F), manufactured by Kurabo Industries, Ltd.) were cultured under the conditions of 37° C. and 5% CO2, in a culture fluid (trade name: EpiLife-KG2, manufactured by Kurabo Industries, Ltd.) using a culture plate.
Thereafter, the culture fluid was exchanged with EpiLife-KG2 from which growth factors such as epidermal growth factor had been eliminated, and a solution in which concentration of toosendanin was adjusted to 1 mM (574 ppm), or a control solution (50% ethanol) was added to the culture fluid in an amount of 0.01%.
The cells were cultured for 3 days, and then the respective cells were collected from each well.
An organic phase obtained by extracting lipids from the collected cells by the Blight and Dyer method, was transferred into a glass tube, and was dried to solid in nitrogen stream. Subsequently, the dried product was redissolved in chloroform and methanol, and this was used as a lipid sample.
Further, 0.1N NaOH and a 1% aqueous SDS solution were added to the cells from which lipids had been extracted, and the mixture was heated at 60° C. for 2 hours to thereby solubilize proteins. The mixture was cooled to room temperature, and then 2N HCl was added for neutralization. The amount of proteins was quantified by the BCA method. […]

CC(=O)O[C@@H]1C[C@H](O)[C@@]23CO[C@@H](O)[C@]1(C)[C@@H]2C[C@@H](O)[C@]1(C)[C@@H]3C(=O)[C@H](OC(C)=O)[C@@]2(C)[C@H](c3ccoc3)C[C@H]3O[C@]321 [Toosendanin, toosendanin]
Amount of ceramide production (Amount of ceramide production of control solution-added group = 1) (concentration for verification 57.4 ppb, cells cultured 3 days, TLC detection, control 50% ethanol): 1.22
amount of ceramide production as compared to the control system (in words) (toosendanin-added system, 57.4 ppb, Table 2): an increase in the amount of ceramide production was recognized
